In patent publication US10064909B2, “Compositions and methods for chronic use of a weight-gaining compound” (priority 2015, dated 2018):
“Also recorded” adds a separate entry of the source.

Experiments:
Assay type in all cases: in vivo
[1] = Capromorelin efficacy in cats for 21 days: food consumption and bodyweight; details: for mean food intake increase over baseline: Day 1 to Day 21 vs Days -3 to -1
Experimental: Thirty-two cats (16 neutered males, 16 females) were divided into 4 treatment groups including 4 animals of each sex per group. The cats were acclimated to the study environment for 10 days prior to study start. All cats were orally dosed with placebo (Group 1) or capromorelin (30 mg/ml oral solution, Formulation 9 as described above) at 1 mg/kg (Group 2), 2 mg/kg (Group 3) or 3 mg/kg (Group 4), for 21 days, with dosing starting on Day 1. Physical examinations were performed on Day −10 and general health observations made daily. Body weights were evaluated on Days −10, −8, −1, 1, 8, 15 and 22 days. Cats were fed about 1 hour after dosing. Commercial dry cat food (300 g) was provided for 5 hours and then removed and the amount of food consumed (g) calculated per cat. On Days 1, 14 and 21, blood samples were collected prior to daily dose administration and at 8 hours post-dose and serum processed for measurement of IGF-1 levels.
On Day 12, two study animals (one male each from Groups 1 and 4) were removed for reasons unrelated to the study and were not included in the data analysis. Cat 4M4 in the 3 mg/kg group lost significant weight during the first 8 days of treatment—then rebounded and began to gain the weight back. Statistical analysis for weight gain was completed with and without this cat's (4M4) data included.

IGF-1 [2] = assay: Laboratory cats modelling CKD safety pilot study: IGF-1 levels; details: cats with compromised kidney function, 2 mg/kg subcutaneous injection for 14 days
Experimental: Sixteen cats with compromised kidney function were enrolled in the study and randomized to three groups. Animals assigned to Group 1 (n=6) were administered AT-002 once on Day 0 by intravenous catheter at a dose rate of 0.75 mg/kg per cat. Animals assigned to Group 2 (n=6) were administered the AT-002 daily for 14 days by subcutaneous injection at a dose rate of 2 mg/kg. Subcutaneous and intravenous treatment routes were used to assure that sufficient drug exposure occurred. Animals assigned to Group 3 (n=4) served as untreated controls.
Blood samples were collected for capromorelin and/or IGF-1 analysis from animals assigned to Group 1 on Study Day 0. Blood samples were also collected from animals assigned to Groups 2 and 3 on Study Days −1 and 13 (prior to dosing) for hematology and clinical chemistry analysis. Appetite was assessed by food intake and weight gain. Bodyweight measurements were performed on Days −7, −1 (all groups) and on Day 13 (Groups 2 and 3 only). Food intake was monitored from Day −7 to Day 13 inclusive for animals assigned to Groups 2 and 3. Animals were observed daily for clinical signs.

[3] = Two-week oral toxicity study in cats
Experimental: This study determined the safety of capromorelin when administered orally to cats. Groups of 3 male and 3 female (n=6/group) mixed breed cats were given capromorelin as an oral capsule once daily at doses of 9, 15, 30 and 60 mg/kg for 14 consecutive days. A similar group was given microcrystalline cellulose as a placebo control. All animals were observed daily for clinical signs and assessed for food consumption, with bodyweights recorded 7 days before dosing and again at euthanasia. Other measurements included periodic clinical pathology evaluations of hematology, serum chemistry and urinalysis. After the dosing period, cats were euthanized and necropsied.

[4] = Safety of capromorelin administered daily to Beagle dogs for one year; details: for high dose relative to proposed clinical dose for dogs (safety margin): 52.4 mg/kg vs proposed clinical dose; for high dose relative to proposed clinical dose for dogs (safety margin) / tolerability / toxicity: L-tartrate; for tolerability / toxicity: oral gavage once daily, doses up to 52.4 mg/kg
Experimental: This study evaluated the safety of capromorelin in dogs. Thirty-two Beagle dogs were randomly assigned to four groups (n=4/sex/group) and received 0 mg/kg, 0.39 mg/kg, 9.2 mg/kg, or 52.4 mg/kg capromorelin (with the dose calculated per the tartrate salt) once daily by oral gavage for 12 consecutive months. Safety parameters were evaluated including clinical signs, food consumption, bodyweight, clinical pathology, urinalysis, ophthalmology, electrocardiogram and vital signs. Capromorelin, GH and IGF-1 were measured in plasma samples collected at various time points during the study. At the end of the dosing period, dogs were humanely euthanized and necropsied. Selected organs were weighed and tissue samples collected and processed for microscopic examination.

IGF-1 [5] = assay: 91-day cat safety study: serum IGF-1; details: cats, 6 mg/kg, compared to placebo controls; sustained, peak at Day 30
Experimental: This controlled study included two treatment groups with 4 adult cats receiving placebo (Group 1) and 8 adult cats receiving capromorelin (Formulation #9, as described above) (Group 2) for 91 consecutive days. All cats were offered food daily for a 6-hour period following an 11-day acclimation phase. All cats were weighed on Days −11, −1, 1, 14, 30, 59, 75, and 91. On Days 1 through 91, animals were orally administered capromorelin once daily via syringe at dose levels of 0 or 6 mg/kg. At one hour post-dose, all cats were offered food for a 6-hour period. Variables of interest included weight gain/loss, food consumption, clinical pathology, and serum analysis of IGF-1 and GH.
On Days 1, 30, 59, and 91, blood samples were collected prior to daily dose administration and at 8 hours post-dose and processed to serum for analysis of IGF-1 and GH levels. […] Serum chemistry parameters measured included albumin (ALB), creatine kinase (CK), albumin/globulin ratio (A\G), globulin (GLOB), alkaline phosphatase (ALP), glucose (GLU), fructosamine, alanine aminotransferase (ALT), blood urea nitrogen (BUN), phosphorus (PHOS), calcium (Ca), potassium (K), chloride (Cl), sodium (Na), cholesterol (CHOL), total protein (TP), creatinine (CRE), total bilirubin (TBIL), BUN/creatinine ratio, and sodium/potassium ratio.

For `CN1N=C2CCN(C(=O)[C@@H](COCc3ccccc3)NC(=O)C(C)(C)N)C[C@@]2(Cc2ccccc2)C1=O.O=C(O)C(O)C(O)C(=O)O` [capromorelin, N-[(2R)-1-[(3aR)-2-methyl-3-oxo-3a-(phenylmethyl)-6,7-dihydro-4H-pyrazolo[4,3-c]pyridin-5-yl]-1-oxo-3-(phenylmethoxy)propan-2-yl]-2-amino-2-methylpropanamide L-tartrate], the “mean percent bodyweight change” value ([1]; 1 mg/kg (Group 2), Day 15) was 4.24%, the “mean percent bodyweight change” value ([1]; 1 mg/kg (Group 2), Day 22 (21-day exposure)) was 5.41% and the “mean food intake increase over baseline” value ([1]; 1 mg/kg oral (Group 2)) was 25.32%. For the same compound, the “mean percent bodyweight change” value ([1]; 2 mg/kg (Group 3), Day 8) was 3.23%, the “mean percent bodyweight change” value ([1]; 2 mg/kg (Group 3), Day 15) was 5.97% and the “mean percent bodyweight change” value ([1]; 2 mg/kg (Group 3), Day 22 (21-day exposure)) was 6.61%. For the same compound, the “mean food intake increase over baseline” value ([1]; 2 mg/kg oral (Group 3)) was 45.67%, the “mean food consumption change from baseline” value ([1]; 2 mg/kg, interval Day 8 through Day 14) was 54.42% and the “mean percent bodyweight change” value ([1]; 3 mg/kg (Group 4), 21-day exposure) was 3.92%. For the same compound, the “mean food intake increase over baseline” value ([1]; 3 mg/kg oral (Group 4)) was 29.59%, the IGF-1 levels (IGF-1 [2]) was “sustained increase” and the NOAEL at 14 days ([3]; both sexes, mixed breed, cat, in vivo, cats, oral capsule once daily, 14 days, read-out: no-observed-adverse-effect-level (NOAEL)) was 15 mg/kg/day. For the same compound, the “30 mg/kg dose level relative to proposed clinically effective dose” value ([3]; cats) was 15 times, the clinical pathology changes ([3]; cats, 15 to 60 mg/kg dosing groups, sporadic) was “increases in serum and urine glucose” and the “clinical signs related to capromorelin” value ([3]; cats, 30 and 60 mg/kg treatment groups) was “emesis, sporadic salivation, and lethargy/depression”. For the same compound, the “tissue findings at necropsy (gross and microscopic)” value ([3]; cats, 14 days) was “not associated with any abnormal tissue findings”, the tolerability ([3]; cats, oral capsule 9, 15, 30 and 60 mg/kg, 14 days) was “well tolerated” and the “mean absolute and relative liver weights” value ([3]; females 30 and 60 mg/kg, absolute liver weights in males at all dosages) was “increased”. For the same compound, the “pressure rate quotient (PRQ) interval, electrocardiogram” value ([4]; 52.4 mg/kg and 9.2 mg/kg groups, 1 to 2 hours following dosing) was “slight increases”, the absolute liver weights ([4]; 52.4 mg/kg dose) was “Increased” and the “red blood cells, hemoglobin and hematocrit” value ([4]; 52.4 mg/kg group) was “slight deceases”. The “cholesterol, HDL and alkaline phosphatase serum levels” value ([4]; 52.4 mg/kg group compared to placebo) was “statistically significantly increased”, the “high dose relative to proposed clinical dose for dogs (safety margin)” value [4] was “about 17.5 times” and the “high dose relative to proposed clinical dose for dogs (safety margin)” value ([4]; listed as Capromorelin) was “approximately 17.5 times”. For the same compound, the hepatocellular cytoplasmic vacuolation ([4]; all capromorelin treated groups) was “slight increase”, the “clinical signs related to capromorelin” value ([4]; dogs, 12 months, noted sporadically) was “salivation and loose stool” and the “capromorelin plasma levels: accumulation” value ([4]; dogs, Days 90, 181 and 349) was “no accumulation of drug”. The reddening/swollen paws ([4]; dogs, higher dose treatments) was “increased incidence”, the tolerability / toxicity ([4]; dogs, 12 months) was “well-tolerated; also recorded: favorable toxicology” and the tolerability / toxicity ([4]; dogs, 12 months, listed as Capromorelin) was “minimal toxicity”. The “effects on food consumption, bodyweight, ophthalmic exams, vital signs or gross pathology” value ([4]; dogs, up to 52.4 mg/kg daily, 12 months) was “no negative effects” and the IGF-1 following treatment (IGF-1 [5]) was “increased”.
